Source: article PMC4492750, “The discovery of a selective and potent A2a agonist with extended lung retention” (Pharmacology Research & Perspectives, 2015)
Entries after “also recorded” stand apart in the source; their conditions may differ.

Columns and labels:
heart = assay: Investigative rat toxicology study (heart histopathology); format: in vivo
Protocol: Rats were intratracheally administrated with compound 2 at 150µg/kg and terminated 24 hours after dosing. Rats in the repeated dose groups received compound 2 at dose level of 1 or 30µg/kg for 4 consecutive days and were terminated 24 hours after the last dose.
The animals were sacrificed by exsanguinations from the common carotid artery under isoflurane anesthesia. The external features were inspected and body weights recorded. The lung together with lower part of the trachea was excised from the thoracic cavity, weighed, and inflated with Formalin via the trachea. Other core organs (heart, kidneys, liver and spleen) were also macroscopically examined, weighed and fixed in buffered Formalin. The collected organs were trimmed and processed to paraffin blocks, sectioned (4µm) and stained with Hematoxylin Eosin (HE) for microscopic examination. Additional heart sections from each animal were collected for immunohistochemistry of Troponin T (see below) and for Masson's Trichrome stain.
The IHC was performed by using Ventanan Discovery XT automated slide processing system, according to the manufacturer’s instructions. In brief, after the antigen retrieval process (Std CC1), the Troponin T antibody (Thermo Scientific, MS-295-P1 diluted 1:50 in Antibody Diluent) was applied on the sections for 60 minutes, followed by incubation with rabbit monoclonal anti-mouse (Epitomics catalog no 3021-1) for 60 minutes and a polymer OmniMap-anti-rabbit HRP Multimer for 16 minutes. The reaction was visualized by using ChromoMap DAB kit. The slides were dehydrated in rising concentration of ethanol, cleared in xylene in an Automatic slide strainer (Sakura, US) and mounted manually with Mountex (00842, Histolab Products AB, Sweden).

[1] = system: blood pressure and heart rate; settings: rat, in vivo
Excerpt: A mixed effect model with fixed effects for time after dose, treatment groups, and number of doses, was set up for the analysis of the blood pressure and HR data (SAS v.9.2). A random intercept was included to allow for individual baseline blood pressures, as well as a random effect on the number of doses. Seven days before initiation of the dosing regimen, 24 rats were anaesthetized (isoflurane) and a small telemetry unit (PA-C10, Data Sciences International, USA) was placed subcutaneously on the left side of the throat with the catheter going into the left carotid artery. […] The compound was given by intratracheal instillation as described above, for 5 consecutive days, and blood pressure and heart rate were continuously recorded, apart from the brief period during compound administration.

## CCNC(=O)[C@H]1O[C@@H](n2cnc3c(NC(CC)CC)nc(NCCNC(=O)Nc4cc[n+](C)cc4)nc32)[C@H](O)[C@@H]1O [Compound 2, (2S,3S,4R,5R)-N-ethyl-5-[6-(1-ethylpropylamino)-2-[2-[(1-methylpyridin-1-ium-4-yl)carbamoylamino]ethylamino]purin-9-yl]-3,4-dihydroxy-tetrahydrofuran-2-carboxamide]
heart; 1 μg/kg i.t. for 4 days
  Heart changes: No changes were observed
heart; 30 μg/kg i.t. for 4 days
  Multifocal scar tissue (dense granulation) in heart: three out of five; also recorded: multifocal dense scar tissue in the heart but no acute myocardial necrosis
heart; 30 μg/kg vs 10 μg/kg i.t.
  Dose level with histopathological heart lesions relative to efficacious dose in inflammatory rat lung model: threefold
heart; single dose of 150 μg/kg or repeated doses of 30 μg/kg
  Heart weight relative to body weight: slightly increased
heart; single i.t. dose 150 μg/kg, one day after dose
  Multifocal myocardial necrosis: four of five; also recorded: caused multifocal myocardial necrosis
[1]
  Tachyphylaxis for the HR: did not demonstrate any tachyphylaxis
